Laboratory results: patent publication US7371763B2, “Inhibition of raf kinase using quinolyl, isoquinolyl or pyridyl ureas” (Bayer Pharmaceuticals Corporation, priority 2001, dated 2008)

CC(C)(C)c1ccnc(NC(=O)Nc2ccc(Oc3ccc(Cl)cc3)cc2)c1 [Entry 8, N-(4-tert-Butylpyridyl)-N′-(4-(4-chlorophenoxy)phenyl) urea]
melting point: 198 to 199 °C
